From patent US6852731B2, “Antiviral compounds” (Pfizer, priority 2002, dated 2005)

Work on `CN(Cc1sc2c(=O)c(C(=O)NCc3ccc(Cl)cc3)cn(C)c2c1COCC[Si](C)(C)C)CC(O)c1cnccn1` (stereo not drawn) yielded a melting point of 154.9 to 155.5 °C. `COCCOCc1c(CN(C)CC(O)c2cccnc2)sc2c(=O)c(C(=O)NCc3ccc(Cl)cc3)cn(C)c12` (stereo not drawn) [Example 72, N-(4-Chlorobenzyl)-2-{[(2-hydroxy-2-pyridin-3-ylethyl)(methyl)amino]methyl}-3-[(2-methoxyethoxy)methyl]-4-methyl-7-oxo-4,7-dihydrothieno[3,2-b]pyridine-6-carboxamide] showed a melting point of 129 to 132 °C. In the case of `COCCOCc1c(CN(C)CC(O)c2cccc(OC)c2)sc2c(=O)c(C(=O)NCc3ccc(Cl)cc3)cn(C)c12` (stereo not drawn) [Example 73, N-(4-Chlorobenzyl)-2-{[[2-hydroxy-2-(3-methoxyphenyl)ethyl](methyl)amino]methyl}-3-[(2-methoxyethoxy)methyl]-4-methyl-7-oxo-4,7-dihydrothieno[3,2-b]pyridine-6-carboxamide], the melting point is reported as 135 to 138 °C. Compound `COCCOCc1c(CN(C)C[C@@H](O)c2ccco2)sc2c(=O)c(C(=O)NCc3ccc(Cl)cc3)cn(C)c12` [Example 74, N-(4-Chlorobenzyl)-2-{[[(2R)-2-(2-furyl)-2-hydroxyethyl](methyl)amino]methyl}-3-[(2-methoxyethoxy)methyl]-4-methyl-7-oxo-4,7-dihydrothieno[3,2-b]pyridine-6-carboxamide] has a melting point of 146 to 147 °C. For `COCCOCc1c(CN(C)CC(O)c2c[nH]c3ccccc23)sc2c(=O)c(C(=O)NCc3ccc(Cl)cc3)cn(C)c12` (stereo not drawn) [Example 75, N-(4-Chlorobenzyl)-2-{[[2-hydroxy-2-(1H-indol-3-yl)ethyl](methyl)amino]methyl}-3-[(2-methoxyethoxy)methyl]-4-methyl-7-oxo-4,7-dihydrothieno[3,2-b]pyridine-6-carboxamide], the melting point was 167 to 169 °C. For `COCCOCc1c(CN(C)CC(O)c2ccccn2)sc2c(=O)c(C(=O)NCc3ccc(Cl)cc3)cn(C)c12` (stereo not drawn) [Example 76, N-(4-Chlorobenzyl)-2-{[(2-hydroxy-2-pyridin-2-ylethyl)(methyl)amino]methyl}-3-[(2-methoxyethoxy)methyl]-4-methyl-7-oxo-4,7-dihydrothieno[3,2-b]pyridine-6-carboxamide], the melting point was 150.5 to 152 °C. In the case of `COCCOCc1c(CN(C)CC(O)c2ncccn2)sc2c(=O)c(C(=O)NCc3ccc(Cl)cc3)cn(C)c12` (stereo not drawn) [Example 77, N-(4-Chlorobenzyl)-2-{[(2-hydroxy-2-pyrimidin-2-ylethyl)(methyl)amino]methyl}-3-[(2-methoxyethoxy)methyl]-4-methyl-7-oxo-4,7-dihydrothieno[3,2-b]pyridine-6-carboxamide], the melting point is reported as 146.5 to 147.5 °C. `COCCOCc1c(CN(C)CC(O)c2ccc(C#N)s2)sc2c(=O)c(C(=O)NCc3ccc(Cl)cc3)cn(C)c12` (stereo not drawn) [Example 80, N-(4-Chlorobenzyl)-2-{[[2-(5-cyanothien-2-yl)-2-hydroxyethyl](methyl)amino]methyl}-3-[(2-methoxyethoxy)methyl]-4-methyl-7-oxo-4,7-dihydrothieno[3,2-b]pyridine-6-carboxamide] showed a melting point of 163 to 164 °C. `C=CCOCc1c(CN(C)C[C@@H](O)c2ccccn2)sc2c(=O)c(C(=O)NCc3ccc(Cl)cc3)cn(C)c12` [Example 81, 3-[(Allyloxy)methyl]-N-(4-chlorobenzyl)-2-{[[(2R)-2-hydroxy-2-pyridin-2-ylethyl](methyl)amino]methyl}-4-methyl-7-oxo-4,7-dihydrothieno[3,2-b]pyridine-6-carboxamide] gave a melting point of 125 to 127 °C. Compound `CN(Cc1sc2c(=O)c(C(=O)NCc3ccc(Cl)cc3)cn(C)c2c1CO)CC(O)c1cnccn1` (stereo not drawn) [Example 84, N-(4-Chlorobenzyl)-3-(hydroxymethyl)-2-{[(2-hydroxy-2-pyrazin-2-ylethyl)(methyl)amino]methyl}-4-methyl-7-oxo-4,7-dihydrothieno[3,2-b]pyridine-6-carboxamide] has a melting point of 211 to 213 °C. `CN(Cc1sc2c(=O)c(C(=O)NCc3ccc(Cl)cc3)cn(C)c2c1CO)CC(O)c1ccc(C#N)s1` (stereo not drawn) [Example 85, N-(4-Chlorobenzyl)-2-{[[2-(5-cyanothien-2-yl)-2-hydroxyethyl](methyl)amino]methyl}-3-(hydroxymethyl)-4-methyl-7-oxo-4,7-dihydrothieno[3,2-b]pyridine-6-carboxamide] gave a melting point of 188 to 190 °C. In the case of `COc1cccc(C(O)CN(C)Cc2sc3c(=O)c(C(=O)NCc4ccc(Cl)cc4)cn(C)c3c2CO)c1` (stereo not drawn) [Example 86, N-(4-Chlorobenzyl)-2-{[[2-hydroxy-2-(3-methoxyphenyl)ethyl](methyl)amino]methyl}-3-(hydroxymethyl)-4-methyl-7-oxo-4,7-dihydrothieno[3,2-b]pyridine-6-carboxamide], the melting point is reported as 165 to 168 °C. In the case of `CN(Cc1sc2c(=O)c(C(=O)NCc3ccc(Cl)cc3)cn(C)c2c1CO)CC(O)c1ccc2ccccc2n1` (stereo not drawn) [Example 89, N-(4-Chlorobenzyl)-3-(hydroxymethyl)-2-{[(2-hydroxy-2-quinolin-2-ylethyl)(methyl)amino]methyl}-4-methyl-7-oxo-4,7-dihydrothieno[3,2-b]pyridine-6-carboxamide], the melting point is reported as 196 to 198 °C. For `CN(Cc1sc2c(=O)c(C(=O)NCc3ccc(Cl)cc3)cn(C)c2c1CN)C[C@@H](O)c1ccccn1` [Example 91, 3-(Aminomethyl)-N-(4-chlorobenzyl)-2-{[[(2R)-2-hydroxy-2-pyridin-2-ylethyl](methyl)amino]methyl}-4-methyl-7-oxo-4,7-dihydrothieno[3,2-b]pyridine-6-carboxamide], the melting point was 144 to 148 °C. In the case of `CN(Cc1sc2c(=O)c(C(=O)NCc3ccc(Cl)cc3)cn(C)c2c1CNS(C)(=O)=O)C[C@@H](O)c1ccccn1` [Example 92, N-(4-Chlorobenzyl)-2-{[[(2R)-2-hydroxy-2-pyridin-2-ylethyl](methyl)amino]methyl}-4-methyl-3-{[(methylsulfonyl)amino]methyl}-7oxo-4,7-dihydrothieno[3,2-b]pyridine-6-carboxamide], the melting point is reported as 171 to 177 °C (dec.).
